In US5726162A (priority 1996, dated 1998):
“And” between values parts separate entries of the source, which are not always exact repeats. Identical values can stand only once. Like-named read-outs stand apart in the source and are kept apart here.

Key:
Boytrytis cinerea = assay: Tomato Botrytis protective experiments (single fungicides and combinations); type: in vivo, Boytrytis cinerea on Pixie tomato plants
Experimental: (§1) The experiments below were performed using the relevant following procedures.
(§2) Experimental compounds and commercial fungicides were tank mixed and mechanically sprayed at varying concentrations in a 1:1:2 mixture of acetone, methanol and water. Protective or preventive sprays were applied one day before spore inoculation. Curative or post-infection sprays were applied one day after spore inoculation. The spraying system utilized delivered a 200 ppm dose at the rate of 1458 liters per hectare. The following details were applicable for the specified diseases:
Three week-old "Pixie" tomato plants were inoculated with Boytrytis cinerea conidia. The plants were held in dim light for two days prior to inoculation. The spore concentration was 500,000 to 650,000 conidia per milliliter of dextrose solution. An atomizer was used to apply the conidial suspension in a heavy coating to near runoff to both the upper and lower leaf surfaces and to the plant stem. The plants were kept in a continuous mist chamber with a day-night cycle and at 20 degrees centigrade for 5 days.
(§3) "Disease control" was recorded as percent control based on a comparison of the unsprayed, inoculated controls and the treated, inoculated plants.

Pyricularia oryzae [1] = type: in vivo, Pyricularia oryzae on M-201 rice plants; conditions: protectant
Septoria nodorum = assay: Wheat Septoria preventative experiments (single fungicides and combinations); type: in vivo, Septoria nodorum on Fielder wheat plants
Experimental: as §1, §2
Fielder wheat plants were inoculated with Septoria nodorum conidia. The spore concentration was approximately 3,000,000 conidia per milliliter in water. An atomizer was used to apply twenty milliliters of inoculum to twenty plants per flat. The plants were placed in a humidity cabinet at 100% relative humidity for 72 hours and then placed in a greenhouse. Evaluations were made 10 days after inoculation.
as §3

fungal inoculum = assay: organism not typed; type: cell-based; conditions: read-out: % growth inhibition
[2] = system: Magnaporthe grisea (Pyricularia oryzae); assay: whole plant or invertebrate; type: in vivo, Magnaporthe grisea (Pyricularia oryzae) on M201 rice plants; conditions: Pyricularia oryzae, 144 h, read-out: % Control RB
[3] = system: Thanatephorus cucumeris (Rhizoctonia solani); assay: In vivo test b) Rice Sheath Blight (RSB), 24 hour preapplication protectant, % control; conditions: protectant; for pest or weed control at 200 ppm: read-out: % Control RSB
Experimental: Compounds were tested at 200 ppm as a twenty-four hour preapplication protectant test prior to inoculation.
b) Rice Sheath Blight (RSB)
Thanatephorus cucumeris (Rhizoctonia solani) mycelia were grown for six days in potato dextrose broth in shake culture. Drained mycelial mats were blended with an approximately equal weight of rice flour and five parts water. This slurry was dispensed onto the soil surface of pots containing rice seedlings previously treated with experimental compounds. The plants were placed in a mist chamber at 25°-28° C. for 48 hours. Following two more days at 25° C. and 70-90% relative humidity the plants were evaluated for percent disease control compared to check plants.

Candida albicans = assay: Activity against Candida albicans in microtiter plates, % control of growth; type: cell-based
Experimental: The activity against Candida albicans was determined using the following test protocol.
Conidia and mycelium from the Candida albicans culture maintained on potato dextrose agar plates were lightly scraped off into yeast extract-dextrose broth (YDB) so that mostly conidia was used as inoculum. The conidial suspsension was strained through a double layer of cheesecloth to remove mycelial clumps. The inoculum mixture was placed in microtiter plates using a 12-tipped pipet. 175 microliters were placed in each well of the microliter plates and the plates were placed in the refrigerator overnight. There were two replications.
The compounds to be tested were dissolved in 1:1 acetone:methanol and 100 ppm of the compound solution were placed in a well of the prepared microtiter plates.
The microtiter plates were incubated for 7 days at room temperature after addition of the compounds. Percent control was visually estimated using a microtiter plate reading mirror. Readings were made at 1, 2, 3, and/or 7 days after treatment.

Pyricularia oryzae [4] = type: in vivo, Pyricularia oryzae on M-201 rice plants; conditions: curative
fungal mycelium = assay: organism not typed; type: cell-based; conditions: read-out: % growth inhibition
[5] = 24 h, 1 day after treatment, read-out: % control of growth +1
[6] = 48 h, 2 days after treatment, read-out: % control of growth +2
[7] = 72 h, 3 days after treatment, read-out: % control of growth +3
[8] = 168 h, 7 days after treatment, read-out: % control of growth +7

Compound | % Disease Control, Observed (Pyricularia oryzae [1]; 12 ppm alone) | % Disease Control, Observed (Pyricularia oryzae [1]; 50 ppm alone) | % Disease Control, Observed (Pyricularia oryzae [1]; 200 ppm alone) | inhibition of growth at 100 ppm (Candida albicans; [5]) | inhibition of growth at 100 ppm (Candida albicans; [6]) | inhibition of growth at 100 ppm (Candida albicans; [7]) | inhibition of growth at 100 ppm (Candida albicans; [8]) | further results
N#CC(CCc1ccc(Cl)cc1)(Cn1cncn1)c1ccccc1 (stereo not drawn) [fenbuconazole, alpha-[2-(4-chlorophenyl)ethyl]-alpha-phenyl-1H-1,2,4-triazole-1-propanenitrile] |  |  |  |  |  |  |  | % Disease Control, Observed (Boytrytis cinerea; 6 ppm alone): 50%; % Disease Control, Observed (Boytrytis cinerea; 25 ppm alone): 75%; % Disease Control, Observed (Boytrytis cinerea; 50 ppm alone): 75%
N#Cc1c(Cl)c(Cl)c(Cl)c(C#N)c1Cl [chlorothalonil] | 0% | 0% | 99% |  |  |  |  | 
CC(C)NC(=O)N1CC(=O)N(c2cc(Cl)cc(Cl)c2)C1=O [iprodione, reference compound] |  |  |  |  |  |  |  | % Disease Control, Observed (Septoria nodorum; 12 ppm alone): 0%; % Disease Control, Observed (Septoria nodorum; 50 ppm alone): 0%; % Disease Control, Observed (Septoria nodorum; 200 ppm alone): 50%
CCC#CCN1N=C(c2ccc(Cl)cc2)CCC1=O [Compound 12, 6-(4-chlorophenyl)-2-(2'-pentynyl)-4,5-dihydropyridazinone] | 0% | 50% | 50% | 100% | 100% | 100% | 100% | inhibition at 1 ppm (fungal inoculum): 96%; pest or weed control at 200 ppm [2]: 99%; pest or weed control at 200 ppm [3]: 50%
O=C1CCc2cccc3c2N1CC3 [pyroquilon] | 0% | 0% | 85% |  |  |  |  | 
C=CCOC1=NS(=O)(=O)c2ccccc21 [probenazole] | 0% | 0% | 0% |  |  |  |  | 
C=CC#CCn1nc(-c2ccc(Cl)cc2)ccc1=O [Compound 119] |  |  |  | 100% | 100% | 100% | 100% | inhibition at 5 ppm (fungal inoculum): 99.3%; pest or weed control at 100 ppm [2]: 95%; pest or weed control at 100 ppm ([3]; 100 ppm): 0%
mancozeb [reference compound] |  | 75% | 99% |  |  |  |  | % Disease Control, Observed (Pyricularia oryzae [4]; 50 ppm alone): 0%; % Disease Control, Observed (Pyricularia oryzae [4]; 200 ppm alone): 0%
CCC#CCn1nc(-c2ccc(Cl)cc2)ccc1=O [Compound 109, 6-(4-chlorophenyl)-2-(2'-pentynyl)pyridazinone] | 0% | 0% | 99% and 80% | 100% | 100% | 100% | 100% | inhibition at 1 ppm (fungal mycelium): 100%; pest or weed control at 200 ppm [2]: 99%; pest or weed control at 200 ppm [3]: 100%; % Disease Control, Observed (Pyricularia oryzae [4]; 12 ppm alone): 0%; % Disease Control, Observed (Pyricularia oryzae [4]; 50 ppm alone): 50%; % Disease Control, Observed (Pyricularia oryzae [4]; 200 ppm alone): 80%; % Disease Control, Observed (Septoria nodorum; 12 ppm alone): 0%; % Disease Control, Observed (Septoria nodorum; 50 ppm alone): 50%; % Disease Control, Observed (Septoria nodorum; 200 ppm alone): 50%; % Disease Control, Observed (Boytrytis cinerea; 50 ppm alone): 0%; % Disease Control, Observed (Boytrytis cinerea; 200 ppm alone): 75%
